Results on 24 molecules are retold here after patent US20180280377A1, “Imidazo[4,5-c]quinolin-2-one Compounds and Their Use in Treating Cancer” (ASTRAZENECA AB, priority 2015, published 2018).

Each structure is given as a SMILES string. Where only a bound is given, the exact number is not on record here.

In experiment [1] the target is T1, ATM (Homo sapiens, UniProt Q13315).
T1 construct: endogenous in cells; host or cells: HT29 cells (ECACC #85061109)
Kind of experiment: ATM cellular potency assay (pATM Ser1981 in irradiated HT29 cells). It counts as cell-based. Particulars: 1 h compound, X-ray irradiation, pATM (Ser1981); Table 2; read-out: Assay a) ATM Cell IC50. As for the experimental part:
(§1) The following assays were used to measure the effects of the compounds of the present invention: a) ATM cellular potency assay; b) PI3K cellular potency assay; c) mTOR cellular potency assay; d) ATR cellular potency assay. During the description of the assays, generally: • i. […] IC50 values were calculated using a smart fitting model in Genedata.
Most ATM molecules in the cell are rapidly phosphorylated on this site after doses of radiation as low as 0.5 Gy, and binding of a phosphospecific antibody is detectable after the introduction of only a few DNA double-strand breaks in the cell.
The rationale of the pATM assay is to identify inhibitors of ATM in cells. HT29 cells are incubated with test compounds for 1 h prior to X-ray-irradiation. 1 h later the cells are fixed and stained for pATM (Ser1981). The fluorescence is read on the arrayscan imaging platform.
The following morning compounds of Formula (I) in 100% DMSO were added to assay plates by acoustic dispensing. After 1 h incubation at 37° C. and 5% CO2, plates (up to 6 at a time) were irradiated using the X-RAD 320 instrument (PXi) with equivalent to 600 cGy. Plates were returned to the incubator for a further 1 h. Then cells were fixed by adding 20 μl of 3.7% formaldehyde in PBS solution and incubating for 20 minutes at r.t. before being washed with 50μl/well PBS, using a Biotek EL405 plate washer. Then 20 μl of 0.1% Triton X100 in PBS was added and incubated for 20 minutes at r.t., to permeabalise cells. Then the plates were washed once with 50 μl/well PBS, using a Biotek EL405 plate washer.
After 1 h incubation at r.t., the plates were washed three times with 50 μl/well PBS, using a Biotek EL405 plate washer, and plates were sealed and kept in PBS at 4° C. until read. Plates were read using an ArrayScan VTI instrument, using an XF53 filter with 10× objective.

The target of experiment [2] is T2, ATR (Homo sapiens, UniProt Q13535).
T2 construct: endogenous in cells; host or cells: HT29 cells (ECACC #85061109)
As to the kind of experiment: ATR cellular potency assay (pChk1 Ser345 in HT29 cells after 4NQO). It counts as cell-based. Particulars: pChk1 (Ser 345); Table 2; read-out: Assay b) ATR Cell IC50. Here is the method: as §1
ATR is a PI3-kinase-related kinase which phosphorylates multiple substrates on serine or threonine residues in response to DNA damage during or replication blocks. Chk1, a downstream protein kinase of ATR, plays a key role in DNA damage checkpoint control. Activation of Chk1 involves phosphorylation of Ser317 and Ser345 (the latter regarded as the preferential target for phosphorylation/activation by ATR).
The following morning compound of Formula (I) in 100% DMSO were added to assay plates by acoustic dispensing. After 1 h incubation at 37° C. and 5% CO2, 40 nl of 3 mM 4NQO in 100% DMSO was added to all wells by acoustic dispensing, except minimum control wells which were left untreated with 4NQO to generate a null response control. Plates were returned to the incubator for a further 1 h. Then cells were fixed by adding 20 μl of 3.7% formaldehyde in PBS solution and incubating for 20 mins at r.t. Then […] of 0.1% Triton X100 in PBS was added and incubated for 10 minutes at r.t., to permeabalise cells. Then the plates were washed once with […] PBS, using a Biotek EL405 plate washer.
After 2 h incubation at r.t., the plates were washed three times with […] PBS, using a Biotek EL405 plate washer, and plates were then sealed with black plate seals until read. Plates were read using an ArrayScan VTI instrument, using an XF53 filter with 10× objective.

T2 sequence (Q13535 whole entry): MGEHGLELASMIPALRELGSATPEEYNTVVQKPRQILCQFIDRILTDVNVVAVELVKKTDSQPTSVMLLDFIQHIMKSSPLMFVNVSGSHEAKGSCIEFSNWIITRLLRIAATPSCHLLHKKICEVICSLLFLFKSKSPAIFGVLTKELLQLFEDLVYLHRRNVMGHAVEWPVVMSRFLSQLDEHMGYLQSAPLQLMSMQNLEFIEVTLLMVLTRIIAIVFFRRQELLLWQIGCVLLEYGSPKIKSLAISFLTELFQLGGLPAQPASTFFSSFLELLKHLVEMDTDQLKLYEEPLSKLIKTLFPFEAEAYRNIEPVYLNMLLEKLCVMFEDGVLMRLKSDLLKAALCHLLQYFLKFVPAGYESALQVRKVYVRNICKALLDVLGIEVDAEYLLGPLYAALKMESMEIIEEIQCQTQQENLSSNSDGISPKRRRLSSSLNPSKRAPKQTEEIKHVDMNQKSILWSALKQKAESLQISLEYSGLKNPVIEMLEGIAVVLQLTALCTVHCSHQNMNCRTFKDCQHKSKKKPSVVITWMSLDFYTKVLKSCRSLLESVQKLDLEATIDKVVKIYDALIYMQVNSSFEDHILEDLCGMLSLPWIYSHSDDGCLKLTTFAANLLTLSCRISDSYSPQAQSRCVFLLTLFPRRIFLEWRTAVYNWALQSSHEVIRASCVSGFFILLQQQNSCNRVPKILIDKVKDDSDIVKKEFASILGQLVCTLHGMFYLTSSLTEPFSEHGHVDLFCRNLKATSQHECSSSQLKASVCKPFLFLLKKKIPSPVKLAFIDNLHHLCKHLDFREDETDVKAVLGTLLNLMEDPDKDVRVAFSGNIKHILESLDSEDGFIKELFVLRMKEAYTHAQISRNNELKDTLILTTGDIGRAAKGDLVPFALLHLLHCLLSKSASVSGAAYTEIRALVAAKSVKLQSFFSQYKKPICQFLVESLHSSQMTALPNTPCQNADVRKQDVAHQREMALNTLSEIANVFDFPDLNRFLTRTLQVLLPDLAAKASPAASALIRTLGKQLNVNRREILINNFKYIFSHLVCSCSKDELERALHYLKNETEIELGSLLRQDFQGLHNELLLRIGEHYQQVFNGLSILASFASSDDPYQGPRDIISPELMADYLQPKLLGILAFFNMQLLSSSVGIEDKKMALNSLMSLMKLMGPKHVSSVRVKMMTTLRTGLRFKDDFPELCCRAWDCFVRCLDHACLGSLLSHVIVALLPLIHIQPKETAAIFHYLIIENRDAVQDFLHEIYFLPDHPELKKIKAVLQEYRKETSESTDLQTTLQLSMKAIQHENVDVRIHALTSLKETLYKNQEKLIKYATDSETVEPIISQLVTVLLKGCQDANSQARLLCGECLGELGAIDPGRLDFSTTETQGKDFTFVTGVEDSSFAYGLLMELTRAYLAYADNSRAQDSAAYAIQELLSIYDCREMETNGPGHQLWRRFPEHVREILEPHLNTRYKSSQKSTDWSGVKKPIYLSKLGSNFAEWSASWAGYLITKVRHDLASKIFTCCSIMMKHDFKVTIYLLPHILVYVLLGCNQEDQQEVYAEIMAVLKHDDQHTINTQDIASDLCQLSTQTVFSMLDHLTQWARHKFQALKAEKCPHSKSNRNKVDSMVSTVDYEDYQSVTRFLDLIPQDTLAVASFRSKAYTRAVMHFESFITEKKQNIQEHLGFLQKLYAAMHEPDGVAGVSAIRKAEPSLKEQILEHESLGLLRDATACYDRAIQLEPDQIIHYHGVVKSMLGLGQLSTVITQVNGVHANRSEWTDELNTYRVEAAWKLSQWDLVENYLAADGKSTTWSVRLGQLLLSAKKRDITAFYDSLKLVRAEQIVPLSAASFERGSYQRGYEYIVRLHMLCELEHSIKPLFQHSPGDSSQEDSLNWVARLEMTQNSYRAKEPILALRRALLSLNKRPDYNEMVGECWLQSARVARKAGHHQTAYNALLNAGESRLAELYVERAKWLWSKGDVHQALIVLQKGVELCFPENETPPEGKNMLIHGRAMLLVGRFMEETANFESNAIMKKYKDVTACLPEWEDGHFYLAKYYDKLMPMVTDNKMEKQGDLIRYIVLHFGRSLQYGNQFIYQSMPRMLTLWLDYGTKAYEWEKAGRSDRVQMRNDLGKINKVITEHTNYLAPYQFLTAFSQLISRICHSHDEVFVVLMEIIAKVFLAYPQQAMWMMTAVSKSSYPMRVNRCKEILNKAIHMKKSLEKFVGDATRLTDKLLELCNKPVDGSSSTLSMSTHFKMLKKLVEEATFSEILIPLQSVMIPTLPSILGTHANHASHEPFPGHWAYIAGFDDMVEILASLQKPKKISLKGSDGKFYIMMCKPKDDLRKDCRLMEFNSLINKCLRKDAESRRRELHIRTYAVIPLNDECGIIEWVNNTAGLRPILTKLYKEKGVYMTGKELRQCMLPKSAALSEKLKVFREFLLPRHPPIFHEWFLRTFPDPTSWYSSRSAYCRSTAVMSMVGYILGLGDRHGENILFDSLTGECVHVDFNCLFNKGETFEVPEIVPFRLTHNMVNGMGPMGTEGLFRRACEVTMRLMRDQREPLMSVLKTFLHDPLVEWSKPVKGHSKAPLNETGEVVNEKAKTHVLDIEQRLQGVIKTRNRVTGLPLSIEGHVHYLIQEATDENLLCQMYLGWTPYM
T2 sequence (Q8WXE1 whole entry partner): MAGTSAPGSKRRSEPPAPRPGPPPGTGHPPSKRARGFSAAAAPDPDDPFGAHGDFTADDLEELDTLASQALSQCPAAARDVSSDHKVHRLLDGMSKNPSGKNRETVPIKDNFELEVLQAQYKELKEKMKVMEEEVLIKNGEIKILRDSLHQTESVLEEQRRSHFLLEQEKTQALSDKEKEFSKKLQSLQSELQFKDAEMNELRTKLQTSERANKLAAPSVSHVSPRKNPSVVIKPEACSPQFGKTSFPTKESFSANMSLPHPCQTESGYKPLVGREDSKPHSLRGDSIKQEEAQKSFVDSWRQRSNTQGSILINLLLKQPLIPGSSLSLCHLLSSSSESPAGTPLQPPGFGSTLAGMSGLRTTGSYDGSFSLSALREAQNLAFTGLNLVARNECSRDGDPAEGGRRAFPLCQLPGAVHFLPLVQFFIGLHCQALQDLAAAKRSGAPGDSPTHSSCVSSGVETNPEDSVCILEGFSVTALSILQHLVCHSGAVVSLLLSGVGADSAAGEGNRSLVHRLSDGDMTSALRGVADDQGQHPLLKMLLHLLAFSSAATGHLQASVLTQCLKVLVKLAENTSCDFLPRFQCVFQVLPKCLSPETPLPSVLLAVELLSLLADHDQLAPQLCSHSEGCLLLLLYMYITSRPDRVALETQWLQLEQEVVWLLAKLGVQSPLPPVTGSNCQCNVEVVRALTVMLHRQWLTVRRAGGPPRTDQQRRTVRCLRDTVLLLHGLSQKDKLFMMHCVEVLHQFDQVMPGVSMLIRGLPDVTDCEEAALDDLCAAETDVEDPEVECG

For the molecule `CN(C)C1CCN(c2ccc(-c3cc4c(cc3F)ncc3c4n([C@H]4CCCOC4)c(=O)n3C)cn2)CC1` [Example 41, 8-[6-[4-(dimethylamino)-1-piperidyl]-3-pyridyl]-7-fluoro-3-methyl-1-[(3S)-tetrahydropyran-3-yl]imidazo[4,5-c]quinolin-2-one], the IC50 in experiment [1] is 2.02 nM; in experiment [2], greater than 30000 nM.
On the same counts, the results for `CN(C)C1CN(c2ccc(-c3ccc4ncc5c(c4c3)n(C3CCOCC3)c(=O)n5C)cn2)C1` [Example 28, 8-[6-[3-(dimethylamino)azetidin-1-yl]-3-pyridyl]-3-methyl-1-tetrahydropyran-4-yl-imidazo[4,5-c]quinolin-2-one] are 19.5 nM and 18800 nM.
On the same counts, the results for `CNC1CCN(c2ccc(-c3ccc4ncc5c(c4c3)n([C@H]3CCCOC3)c(=O)n5C)cn2)CC1` [Example 59, 3-methyl-8-[6-[4-(methylamino)-1-piperidyl]-3-pyridyl]-1-[(3S)-tetrahydropyran-3-yl]imidazo[4,5-c]quinolin-2-one] are 1.38 nM and greater than 30000 nM.
On to `CO[C@H]1C[C@@H](n2c(=O)n(C)c3cnc4cc(F)c(-c5ccc(N6CC[C@H](N(C)C)C6)nc5)cc4c32)C1` [Example 21], for which the IC50 in experiment [1] was 25.8 nM; in experiment [2], greater than 30000 nM.
On to `CO[C@H]1CCC[C@H](n2c(=O)n(C)c3cnc4ccc(-c5ccc(N6CC[C@@H](N(C)C)C6)nc5)cc4c32)C1` (single isomer, unassigned) [Example 51], for which the figures for the IC50 in experiment [1] and in experiment [2] were 0.589 nM and 90.6 nM, respectively.
On the same counts, the results for `CN(C)[C@H]1CCN(c2ccc(-c3cc4c(cc3F)ncc3c4n([C@@H]4CCCOC4)c(=O)n3C)cn2)C1` [Example 19] are 63.4 nM and greater than 30000 nM.
As to `CN(C)[C@@H]1CCN(c2ccc(-c3cc4c(cc3F)ncc3c4n([C@@H]4CCCOC4)c(=O)n3C)cn2)C1` [Example 14], in experiment [1], the half-maximal inhibitory concentration (IC50) was determined as 1.51 nM.
Consider `CO[C@H]1C[C@@H](n2c(=O)n(C)c3cnc4ccc(-c5ccc(N6CC[C@H](N(C)C)C6)nc5)cc4c32)C1` [Example 18], for which the IC50 is 12.7 nM in experiment [1] and 17500 nM in experiment [2].
For `CO[C@H]1CC[C@H](n2c(=O)n(C)c3cnc4cc(F)c(-c5ccc(N6CC(N(C)C)C6)nc5)cc4c32)C1` (single isomer, unassigned) [Example 30, 8-[6-[3-(dimethylamino)azetidin-1-yl]-3-pyridyl]-7-fluoro-1-[trans-3-methoxycyclopently]-3-methyl-imidazo[4,5-c]quinolin-2-one], in that order: 24.9 nM and greater than 30000 nM.
On the same counts, the results for `CO[C@@H]1CCC[C@H](n2c(=O)n(C)c3cnc4ccc(-c5ccc(N6CCC(N(C)C)CC6)nc5)cc4c32)C1` (single isomer, unassigned) [Example 46, 8-[6-[4-(dimethylamino)-1-piperidyl]-3-pyridyl]-1-[cis-3-methoxycyclohexyl]-3-methyl-imidazo[4,5-c]quinolin-2-one] are 7.7 nM and greater than 10000 nM.
For `CO[C@@H]1CCC[C@H](n2c(=O)n(C)c3cnc4ccc(-c5ccc(N6CC(N(C)C)C6)nc5)cc4c32)C1` (single isomer, unassigned) [Example 49, 8-[6-[3-(dimethylamino)azetidin-1-yl]-3-pyridyl]-1-[cis-3-methoxycyclohexyl]-3-methyl-imidazo[4,5-c]quinoline-2-one], in that order: 15.3 nM and 1910 nM.
Turning to `CO[C@@H]1CCC[C@H](n2c(=O)n(C)c3cnc4ccc(-c5ccc(N6CC(N(C)C)C6)nc5)cc4c32)C1` (single isomer, unassigned) [Example 50, 8-[6-[3-(dimethylamino)azetidin-1-yl]-3-pyridyl]-1-[cis-3-methoxycyclohexyl]-3-methyl-imidazo[4,5-c]quinolin-2-one], the results for the IC50 in experiment [1] and in experiment [2] were 16.7 nM and 1970 nM, respectively.
On the same counts, the results for `CN(C)[C@@H]1CCN(c2ccc(-c3cc4c(cc3F)ncc3c4n([C@H]4CCCOC4)c(=O)n3C)cn2)C1` [Example 15] are 1.46 nM and greater than 30000 nM.
For `CN(C)C1CCN(c2ccc(-c3ccc4ncc5c(c4c3)n(C3CCC3)c(=O)n5C)cn2)CC1` [Example 37, 1-cyclobutyl-8-[6-[4-(dimethylamino)-1-piperidyl]-3-pyridyl]-3-methyl-imidazo[4,5-c]quinolin-2-one], in that order: 0.911 nM and greater than 30000 nM.
For `CO[C@H]1CC[C@H](n2c(=O)n(C)c3cnc4ccc(-c5ccc(N6CC(N(C)C)C6)nc5)cc4c32)C1` (single isomer, unassigned) [Example 23, 8-[6-[3-(dimethylamino)azetidin-1-yl]-3-pyridyl]-1-[trans-3-methoxycyclopentyl]-3-methyl-imidazo[4,5-c]quinolin-2-one], in that order: 22.8 nM and greater than 24000 nM.
As for `CNC1CCN(c2ccc(-c3ccc4ncc5c(c4c3)n(C3CCOCC3)c(=O)n5C)cn2)CC1` [Example 61, 3-methyl-8-[6-[4-(methylamino)-1-piperidyl]-3-pyridyl]-1-tetrahydropyran-4-yl-imidazo[4,5-c]quinolin-2-one], the concentration for half-maximal inhibition (IC50) is 0.753 nM in experiment [1] and greater than 25500 nM in experiment [2].
Regarding `CO[C@H]1C[C@@H](n2c(=O)n(C)c3cnc4cc(F)c(-c5ccc(N6CCC[C@@H](N(C)C)C6)nc5)cc4c32)C1` [Example 43, 8-[6-[(3R)-3-(dimethylamino)-1-piperidyl]-3-pyridyl]-7-fluoro-1-(cis-3-methoxycyclobutyl)-3-methyl-imidazo[4,5-c]quinolin-2-one], the IC50 in experiment [1] is 72 nM; in experiment [2], greater than 30000 nM.
For `CO[C@H]1C[C@@H](n2c(=O)n(C)c3cnc4cc(F)c(-c5ccc(N6CC[C@@H](N(C)C)C6)nc5)cc4c32)C1` [Example 6, 8-[6-[(3R)-3-(Dimethylamino)pyrrolidin-1-yl]-3-pyridyl]-7-fluoro-1-(cis-3-methoxycyclobutyl)-3-methyl-imidazo[4,5-c]quinolin-2-one], in that order: 1.7 nM and greater than 30000 nM.
On the same counts, the results for `CO[C@H]1CC[C@H](n2c(=O)n(C)c3cnc4ccc(-c5ccc(N6CC[C@@H](N(C)C)C6)nc5)cc4c32)CC1` [Example 12] are 0.434 nM and 223 nM.
For `CO[C@H]1CCC[C@H](n2c(=O)n(C)c3cnc4ccc(-c5ccc(N6CC(N(C)C)C6)nc5)cc4c32)C1` (single isomer, unassigned) [Example 55, 8-[6-[3-(dimethylamino)azetidin-1-yl]-3-pyridyl]-1-[trans-3-methoxycyclohexyl]-3-methyl-imidazo[4,5-c]quinolin-2-one], in that order: 3.38 nM and 804 nM.
With `CN(C)C1CCN(c2ccc(-c3ccc4ncc5c(c4c3)n(C3COC3)c(=O)n5C)cn2)CC1` [Example 38, 8-[6-[4-(dimethylamino)-1-piperidyl]-3-pyridyl]-3-methyl-1-(oxetan-3-yl)imidazo[4,5-c]quinolin-2-one], the IC50 in experiment [1] is 3.91 nM; in experiment [2], greater than 30000 nM.
For `CO[C@H]1CC[C@H](n2c(=O)n(C)c3cnc4ccc(-c5ccc(N6CC(N(C)C)C6)nc5)cc4c32)C1` (single isomer, unassigned) [Example 22, 8-[6-[3-(dimethylamino)azetidin-1-yl]-3-pyridyl]-1-[trans-3-methoxycyclopentyl]-3-methyl-imidazo[4,5-c]quinolin-2-one], in that order: 13.4 nM and 6710 nM.
For `CN(C)[C@H]1CCN(c2ccc(-c3ccc4ncc5c(c4c3)n([C@@H]3CCCOC3)c(=O)n5C)cn2)C1` [Example 16], in that order: 18.6 nM and greater than 22300 nM.
Take `CN(C)[C@@H]1CCN(c2ccc(-c3ccc4ncc5c(c4c3)n(C3CCOCC3)c(=O)n5C)cn2)C1` [Example 13]: the IC50 in experiment [1] was greater than 23.9 nM.
